The supplement of paper PMC11451515

Test system: SEM cells
Assay: cell viability relative to DMSO control; higher = less cytotoxic
Settings: 48 h
In short: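 Viability was expressed as a per-plate percentage of DMSO wells, with cell-free wells as background. Leukemia cells (NOMO1 or SEM at 500 cells/well, P12-Ichikawa at 1000 cells/well) were adapted for at least four passages in each medium and seeded in 1536-well plates (5 μl). Library compounds in DMSO were pin-dosed over an 11-point threefold series from 47 μM to 0.79 nM, and CellTiter-Glo One luminescence was read after 48 h at 37°C.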

[1] = HPLM + 10% dialyzed FBS, 0.000781 µM
[2] = HPLM + 10% dialyzed FBS, 0.00234 µM
[3] = HPLM + 10% dialyzed FBS, 0.00702 µM
[4] = HPLM + 10% dialyzed FBS, 0.0211 µM
[5] = HPLM + 10% dialyzed FBS, 0.0632 µM
[6] = HPLM + 10% dialyzed FBS, 0.19 µM
[7] = HPLM + 10% dialyzed FBS, 0.569 µM
[8] = HPLM + 10% dialyzed FBS, 1.71 µM
[9] = HPLM + 10% dialyzed FBS, 5.12 µM
[10] = HPLM + 10% dialyzed FBS, 15.4 µM
[11] = HPLM + 10% dialyzed FBS, 46.1 µM
[12] = RPMI 5 mM glucose + 10% FBS, 0.000781 µM
[13] = RPMI 5 mM glucose + 10% FBS, 0.00234 µM
[14] = RPMI 5 mM glucose + 10% FBS, 0.00702 µM
[15] = RPMI 5 mM glucose + 10% FBS, 0.0211 µM
[16] = RPMI 5 mM glucose + 10% FBS, 0.0632 µM
[17] = RPMI 5 mM glucose + 10% FBS, 0.19 µM
[18] = RPMI 5 mM glucose + 10% FBS, 0.569 µM
[19] = RPMI 5 mM glucose + 10% FBS, 1.71 µM
[20] = RPMI 5 mM glucose + 10% FBS, 5.12 µM
[21] = RPMI 5 mM glucose + 10% FBS, 15.4 µM
[22] = RPMI 5 mM glucose + 10% FBS, 46.1 µM
[23] = RPMI 5 mM glucose + 10% dialyzed FBS, 0.000781 µM
[24] = RPMI 5 mM glucose + 10% dialyzed FBS, 0.00234 µM
[25] = RPMI 5 mM glucose + 10% dialyzed FBS, 0.00702 µM
[26] = RPMI 5 mM glucose + 10% dialyzed FBS, 0.0211 µM
[27] = RPMI 5 mM glucose + 10% dialyzed FBS, 0.0632 µM
[28] = RPMI 5 mM glucose + 10% dialyzed FBS, 0.19 µM
[29] = RPMI 5 mM glucose + 10% dialyzed FBS, 0.569 µM
[30] = RPMI 5 mM glucose + 10% dialyzed FBS, 1.71 µM
[31] = RPMI 5 mM glucose + 10% dialyzed FBS, 5.12 µM
[32] = RPMI 5 mM glucose + 10% dialyzed FBS, 15.4 µM
[33] = RPMI 5 mM glucose + 10% dialyzed FBS, 46.1 µM

Structure (SMILES)	cell viability [1]	cell viability [2]	cell viability [3]	cell viability [4]	cell viability [5]	cell viability [6]	cell viability [7]	cell viability [8]	cell viability [9]	cell viability [10]	cell viability [11]	cell viability [12]	cell viability [13]	cell viability [14]	cell viability [15]	cell viability [16]	cell viability [17]	cell viability [18]	cell viability [19]	cell viability [20]	cell viability [21]	cell viability [22]	cell viability [23]	cell viability [24]	cell viability [25]	cell viability [26]	cell viability [27]	cell viability [28]	cell viability [29]	cell viability [30]	cell viability [31]	cell viability [32]	cell viability [33]
C=C1C[C@@]2(O)O[C@@]3(C[C@H]2C(C)C)[C@@H](C)CC[C@@H]13	90.3%	85.5%	68.4%	109%	105%	108%	23.6%	41%	100%	108%	95.1%	117%	109%	78.5%	125%	113%	122%	21.8%	41.5%	116%	108%	111%	81.8%	110%	77.2%	97.3%	96%	104%	21.5%	29.9%	105%	111%	93.2%
CC1=C(/C=C/C(C)=C/C=C/C(C)=C/C(=O)Nc2ccc(O)cc2)C(C)(C)CCC1	84.5%	77.4%	81.4%	104%	86.9%	83.9%	85.1%	42.5%	23.1%	5.89%	3.35%	85%	85.5%	92.2%	96.9%	81.4%	88.6%	83%	65%	30.7%	9.06%	3.24%	76.8%	71.5%	80.1%	85.3%	76.6%	80.8%	82.2%	37.5%	20%	4.93%	2.92%
CNC(=O)c1c(F)cccc1Nc1nc(Nc2cc3c(cc2OC)CCN3C(=O)CN(C)C)nc2[nH]ccc12	84.8%	92.2%	94.8%	100%	83.5%	58.3%	40.5%	31.9%	22%	3.15%	1.16%	90.3%	90.5%	83.2%	97.9%	88.7%	51%	34.8%	27.3%	13.5%	1.01%	0.384%	93.6%	96.8%	93.6%	105%	94.7%	58.4%	32.8%	30.2%	13.4%	2.8%	0.739%
CCC(CC)[C@H](NC(C)=O)[C@@H]1[C@H](O)[C@@H](C(=O)O)C[C@H]1NC(=N)N	62%	68%	77.2%	87.2%	76.1%	32.7%	57.9%	79.1%	78.3%	66.1%	87.8%	89.2%	84.2%	84.6%	80.4%	103%	17.8%	94.4%	102%	87.2%	77.7%	88.3%	69.9%	71.9%	80.8%	80.9%	81.8%	56.7%	50.9%	95.9%	114%	71.9%	68.6%
COc1cc2ncnc(Nc3ccc(F)c(Cl)c3)c2cc1OCCCN1CCOCC1	118%	113%	123%	103%	123%	112%	107%	102%	86.8%	48.5%	10.9%												105%	119%	125%	102%	125%	118%	123%	108%	78.1%	82%	31.9%
CCCCOc1ccc(C(=O)Nc2ccc(F)cc2F)cc1	68.1%	88.6%	67.1%	95.1%	86.9%	88.3%	84.6%	30.1%	88.1%	92.5%	83.4%	68.6%	88.8%	65.9%	86.5%	83.4%	92.7%	81.5%	48.3%	88.4%	101%	73.5%	78%	89.7%	70.6%	90.1%	84.7%	85.6%	86.2%	48.1%	88%	90.2%	76.7%
CCCCc1oc2ccc(NS(C)(=O)=O)cc2c1C(=O)c1ccc(OCCCN(CCCC)CCCC)cc1	62.8%	66%	80.9%	87.6%	92.6%	86.6%	101%	98.7%	70.2%	78.6%	8.35%	88.9%	87.5%	98.2%	109%	95.6%	92.6%	101%	108%	96.3%	94.1%	14.9%	94.8%	94.1%	98.4%	108%	107%	99.3%	100%	109%	97%	94.7%	6.45%
c1ccc(-c2nn3c(c2-c2ccnc4cc(OCCN5CCOCC5)ccc24)CCC3)nc1	77.4%	106%	121%	126%	126%	129%	115%	128%	145%	127%	110%	102%	125%	132%	125%	143%	134%	122%	138%	144%	123%	91.1%	68.3%	122%	137%	132%	135%	127%	125%	131%	117%	129%	82.2%
